Entries after “also recorded” stand apart in the source; their conditions may differ.
Assays:
Male Sprague Dawley rats = settings: rat, in vivo
Procedure: Male Sprague Dawley rats obtained from Charles River (Portage, Mich.) and weighing 200-225 g at their arrival were used in this study. Rats were housed in groups of two in a room with a reverse 12 h light/12 h dark cycle (lights off at 07:30 AM). All experiments were conducted during the dark phase of the cycle. Animals were acclimatized for 7 days with water and chow (Teklad Diets, Madison, Wis.) and handled for 3 times before the experiments were started. Throughout all operant procedures, rats were food restricted (received 20 g of chow daily) with water freely accessible.
5 was dissolved in a vehicle of 0.9% saline and injected subcutaneously at doses of (0.0, 0.3, 1.0 mg/kg). The injection volume was 1 ml/kg. […] (−)-Nicotine hydrogen tartrate salt and alcohol were purchased from Sigma (St. Louis, Mo.). Alcohol was diluted to a concentration of 10% v/v in water and made available orally. Nicotine solution for i.v. injection (30 micrograms/kg/0.1 ml infusion) was obtained by dissolving the salt in 0.9% saline and the pH adjusted to 7.0-7.4 with 3 M sodium hydroxide. Nicotine self-administration dose is reported as free base concentration.
The self-administration boxes consisted of operant conditioning chambers (Med Associates, Inc., St. Albans, Vt.) enclosed in lit, sound attenuating, ventilated environmental cubicles. […]

[1] = pharmacokinetics, blood content and blood brain barrier penetration after sc administration; settings: rats, 2.0 mg/kg sc
[2] = smoking cessation; cited from earlier work

| SMILES | nicotine self-administration analysed in 30-min intervals (Male Sprague Dawley rats) | time to maximal concentration in blood and brain [1] [min] | cessation rates in most clinical trials [2] |
| --- | --- | --- | --- |
| C[C@H]1CNC(=N)N1CCc1cccnc1 [Compound 5, (S)-5-Methyl-1-(2-(pyridin-3-yl)ethyl)imidazolidin-2-imine] | decreased nicotine self-administration during the first 30 min but not during the remaining 90-min period; also recorded: reducing nicotine self-administration only in the first 30 min | ≤ 10 |  |
| CC(NC(C)(C)C)C(=O)c1cccc(Cl)c1 (stereo not shown) [bupropion] |  |  | 15-25% |
| c1cnc2cc3c(cc2n1)[C@@H]1CNC[C@H]3C1 [varenicline] |  |  | 23-40% |

From patent US20200179361A1, “COMPOSITIONS, METHODS OF USE, AND METHODS OF TREATMENT” (TORREY PINES INSTITUTE FOR MOLECULAR STUDIES, priority 2017, published 2020)
